# Measured values reported in US10010535B2, “Desferrithiocin analogs and uses thereof” (University of Florida Research Foundation, Incorporated, priority 2013, dated 2018).
# Counter-ions that a name gives are not always drawn. Like-named read-outs stand apart in the source and are kept apart here.
# Assays:
# [1] = Octanol-water partition, shake flask (log Papp); format: physicochemical; settings: pH 7.4, Tris buffer
# Description: The partition values between octanol and water (at pH 7.4, Tris buffer) were determined using a “shake flask” direct method of measuring log Papp values (Sangster et al., Octanol-Water Partition Coefficients: Fundamentals and Physical Chemistry; John Wiley and Sons: West Sussex, England, 1997; Vol. 2). The fraction of compound in the octanol is then expressed as log Papp. […] This is likely due to the presence of the aromatic nitrogen, a moderately good hydrogen bond accepter, on the DFT analogs.
# iron excretion [2] = settings: cited from earlier work; for relative percentages of the iron excreted in the bile and urine: rodents
# iron excretion [3] = settings: cited from earlier work; for relative percentages of the iron excreted in the feces and urine: primates
# [4] = Job's plot stoichiometry of Fe(III) complexes; format: binding; settings: [DFT analog]+[Fe(III)]=1.0 mM, Tris-HCl pH 7.4; theoretical 0.667 for 2:1
# Description: Solutions containing DFT analog/Fe(III) at different ratios were prepared such that [DFT analog]+[Fe(III)]=1.0 mM in Tris-HCl buffer at pH 7.4. The theoretical mole fraction maximum for a 2:1 DFT analog:Fe complex is 0.667 (indicated by an arrow).
# In each instance, the DFT analogs formed 2:1 complexes with Fe(III). […] A 100 mM Tris HCl buffer was used to maintain the pH at 7.4. Solutions containing different DFT analog/Fe(III) ratios were prepared by mixing appropriate volumes of 1.0 mM DFT analog solution and 1.0 mM Fe(III)-nitriloacetate (NTA) in Tris-HCl buffer. The 1.0 mM Fe(III)-NTA solution was prepared immediately prior to use by dilution of a 41.6 mM Fe(III)-NTA stock solution with the Tris HCl buffer, whereas the DFT analog stock solution was prepared by dissolving the DFT analog as its monosodium salt in Tris HCl buffer at pH 7.4. The Fe(III)-NTA stock solution was prepared by mixing equal volumes of […] of FeCl3 and 180 mM trisodium NTA. The iron content of the Fe(III)-NTA solution was verified by atomic absorption spectrophotometry (AAS).
# urinary Kim-1 excretion [5] = settings: for survival of dosing period: po twice daily 237 μmol/kg/dose (474 μmol/kg/d), up to 7 d, rats with normal iron stores; for renal toxicity (Kim-1, BUN, SCr), summary: rat, in vivo
# Description: The compounds were administered to the rats po as their monosodium salts, prepared as described above, twice daily at a dose of 237 μmol/kg/dose (474 μmol/kg/d) for up to 7 d. The studies were performed on rats with normal iron stores. The rats were fasted overnight and were given the first dose of the compound first thing in the morning. The rats were fed ˜3 h post-dose and had access to food for ˜5 h before being fasted overnight.
# The rats were housed in individual metabolic cages. […] A baseline (day 0) urine sample was collected and assessed for its Kim-1 content; each animal served as its own control. The urine was collected chilled as previously described (Bergeron et al., “Desferrithiocin Analog Iron Chelators: Iron Clearing Efficiency, Tissue Distribution, and Renal Toxicity.” Biometals, 2011, 24, 239-258).
# The chilled urine was collected, vortexed, and warmed to room temperature; any sediment in the samples was allowed to settle. Kim-1 content was assessed using a Rat Kim-1 Rapid Test Kit according to the manufacturer's instructions. The result was read using a ReaScan Test Reader. […] Data are presented as the mean±the standard error of the mean; p-values were generated via a one-tailed Student's t-test in which the inequality of variances was assumed; and a p-value of <0.05 was considered significant.
# Assessment of chelator-induced impaired renal function has traditionally relied on the detection of a rise in blood urea nitrogen (BUN) and/or serum creatinine (SCr). However, because of the functional reserve of the kidney, these parameters are often unreliable indicators of acute kidney injury; the ultimate answer requires histopathology. […] BioAssay Works has recently developed RenaStick, a direct lateral flow immunochromato-graphic assay, which allows for the rapid detection (less than 30 minutes) and quantitation of urinary Kim-1 (rat) or KIM-1 (human) excretion (Vaidya et al., “A Rapid Urine Test for Early Detection of Kidney Injury.” Kidney. Int. 2009, 76, 108-114). […] The studies were performed on rats with normal iron stores; each animal served as their own control.
# [6] = 1H NMR hydrogen-deuterium exchange study; format: physicochemical; settings: 25° C., pH 7.0, phosphate buffer (0.1 M)
# Description: The ratio of the (unexchanged) to the (original) was measured by the diminution of δ 6.33 (d, H-3′, J=2.3) relative to the integration of δ 6.39 (d, H-5′, J=9.0) at time points to 104 min. […] (unexchanged) to the [I-1] (original) was measured by the diminution of δ 6.41 (d, H-4′, J=2.3) relative to the integration of δ 7.54 (d, H-6′, J=2.3) at time points to 16 h. Plots of the natural log of [compound]
# Quinone formation could result in redox cycling and, at a cellular level, untoward side effects. […] The exchange rate order is understandable.
# [7] = in vivo; cited from earlier work
# iron excretion [8] = test: Iron-clearing efficiency in iron-overloaded primates (fecal and urine samples); format: in vivo, Cebus apella monkeys
# Description: At least 20 half-lives, 60 days (Wood et al., “The Metabolism of Iron-Dextran Given As a Total-Dose Infusion to Iron Deficient Jamaican Subjects.” Br. J. Hamaetol. 1968, 14, 119-129), elapsed before any of the animals were used in experiments evaluating iron-chelating agents.
# Briefly, the collections began 4 days prior to the administration of the test compound and continued for an additional 5 days after the compound was given. Iron concentrations were determined by flame absorption spectroscopy as presented in other publications (Bergeron et al., “A Comparative Evaluation of Iron Clearance Models.” Ann. N.Y. Acad. Sci. 1990, 612, 378-393; Bergeron et al., “Synthesis and Biological Evaluation of Naphthyldesferrithiocin Iron Chelators.” J. Med. Chem. 1996, 39, 1575-1581).
# In the text below, the term “iron-clearing efficiency” (ICE) is used as a measure of the amount of iron excretion induced by a chelator. The ICE, expressed as a percent, is calculated as (compound-induced iron excretion/theoretical iron excretion)×100. To illustrate, the theoretical iron excretion after administration of one millimole of desferrioxamine B mesylate (DFO) (FIG. 3), a hexadentate chelator that forms a 1:1 complex with Fe(III), is one milli-g-atom of iron. Two millimoles of desferrithiocin (DFT) (Table 1), a tridentate iron chelator that forms a 2:1 complex with Fe(III), are required for the theoretical excretion of one milli-g-atom of iron. The theoretical iron outputs of the chelators were generated on the basis of a 2:1 compound:iron complex. The efficiencies in the rats and monkeys were calculated as set forth elsewhere (Bergeron et al., “Effects of C-4 Stereochemistry and C-4′ Hydroxylation on the Iron Clearing Efficiency and Toxicity of Desferrithiocin Analogs.” J. Med. Chem. 1999, 42, 2432-2440; Bergeron et al., “HBED: A Potential Alternative to Deferoxamine for Iron-Chelating Therapy.” Blood 1998, 91, 1446-1452).
# [9] = po once daily 384 μmol/kg/d (100 mg/kg/d), cited from earlier work
# [10] = oral; cited from earlier work
# urinary Kim-1 excretion [11] = settings: cited from earlier work
# [12] = system: acetic acid-induced colitis; settings: rat, in vivo; cited from earlier work
# [13] = po twice daily 237 μmol/kg/dose × 7 d
# [14] = po 150 μmol/kg, solubilized in 40% Cremophor RH-40/water
# [15] = po 150 μmol/kg, 40% Cremophor RH-40/water
# [16] = po once daily 28 d, once daily 384 μmol/kg/d × 10 d, twice daily 237 μmol/kg/dose × 7 d
# [17] = day 8, after 237 μmol/kg twice daily × 7 d
smiles,measurement,setting,value
COCCOCCOc1cccc(C2=N[C@@](C)(C(=O)O)CS2)c1O [compound 9],LogPapp,[1],−0.96
same,Rodent Iron-Clearing Efficiency (%),"iron excretion [2]; po 300 μmol/kg, monosodium salt, 48-h sample collection",15.1 ± 2.0%
same,relative percentages of the iron excreted in the bile and urine,"iron excretion [2]; po 300 μmol/kg, monosodium salt, 48 h",99/1
same,Primate Iron-Clearing Efficiency (%),iron excretion [3]; po 75 μmol/kg,22.5 ± 6.4%
same,relative percentages of the iron excreted in the feces and urine,iron excretion [3]; po 75 μmol/kg,86/14
"COCCOCCOc1cnc(C2=N[C@@](C)(C(=O)O)CS2)c(O)c1 [I-2, (S)-4,5-Dihydro-2-[3-hydroxy-5-(3,6-dioxaheptyloxy)-2-pyridinyl]-4-methyl-4-thiazolecarboxylic Acid]",LogPapp,[1],−1.59
same,observed mole fraction maximum in Job's plot,[4],0.676
same,survival of dosing period,urinary Kim-1 excretion [5],All of the animals survived the compound dosing regimen
same,BUN and SCr,urinary Kim-1 excretion [5]; [13],well within the normal range
same,urinary Kim-1 excretion versus baseline (day 0),urinary Kim-1 excretion [5]; [13],remained within error of that of the baseline (day 0) levels
same,"renal toxicity (Kim-1, BUN, SCr), summary",urinary Kim-1 excretion [5],little to no impact on renal function
same,"Exchange Rate (s^−1), hydrogen-deuterium exchange",[6],No change and none and No exchange
"C[C@]1(C(=O)O)CSC(c2ccccc2O)=N1 [compound 2, desazadesferrithiocin]",LogPapp,[1],−0.34
same,Rodent Iron-Clearing Efficiency (%),iron excretion [2]; [14],2.7±0.5%
same,relative percentages of the iron excreted in the bile and urine,iron excretion [2]; [15],100/0
same,Primate Iron-Clearing Efficiency (%),iron excretion [3]; po 75 μmol/kg,21.5±12%
same,relative percentages of the iron excreted in the feces and urine,iron excretion [3]; po 75 μmol/kg,76/24
same,gastrointestinal toxicity,[7],serious gastrointestinal (GI) problems
same,nephrotoxicity,[7],not overtly nephrotoxic
same,"Performance ratio (PR), mean ICEprimates/ICErodents",iron excretion [8]; primates po / rodents po,8.0
"C[C@]1(C(=O)O)CSC(c2ncccc2O)=N1 [compound 1, desferrithiocin]",LogPapp,[1],−1.77
same,mortality,"[9]; planned 10-d, rats with normal iron stores",All of the rats were dead by day 5
same,nephrotoxicity,[9],severely nephrotoxic
same,Rodent Iron-Clearing Efficiency (%),iron excretion [2]; [14],5.5±3.2%
same,relative percentages of the iron excreted in the bile and urine,iron excretion [2]; [15],93/7
same,nephrotoxicity,[10],severe nephrotoxicity
same,fold increase of urinary Kim-1 over baseline,"urinary Kim-1 excretion [5]; after one day, 237 μmol/kg/dose twice daily po",~10 fold
same,survival of dosing period,urinary Kim-1 excretion [5],None of the rats survived
same,SCr,"urinary Kim-1 excretion [5]; two moribund rats sacrificed after four days of 237 μmol/kg/dose twice daily, normal 0.4-1",5.1 ± 0.3 mg/dL
same,BUN,"urinary Kim-1 excretion [5]; two moribund rats sacrificed after four days of 237 μmol/kg/dose twice daily, normal 9-30",139 ± 8 mg/dL
same,Primate Iron-Clearing Efficiency (%),iron excretion [3]; po 150 μmol/kg,16.1±8.5%
same,relative percentages of the iron excreted in the feces and urine,iron excretion [3]; po 150 μmol/kg,78/22
same,"Performance ratio (PR), mean ICEprimates/ICErodents",iron excretion [8]; primates po / rodents po,2.9
COCCOCCOc1ccc(C2=N[C@@](C)(C(=O)O)CS2)c(O)c1 [compound 7],LogPapp,[1],−0.89
same,Rodent Iron-Clearing Efficiency (%),"iron excretion [2]; po 300 μmol/kg, capsules, 48-h sample collection",26.7±4.7%
same,relative percentages of the iron excreted in the bile and urine,"iron excretion [2]; po 300 μmol/kg, capsules, 48 h",97/3
same,BUN and SCr,urinary Kim-1 excretion [11]; [16],well within the normal range
same,survival of dosing period,urinary Kim-1 excretion [11]; [16],All of the rats survived the dosing period
same,urinary Kim-1 content versus baseline (day 0),urinary Kim-1 excretion [11]; [16],stayed within error of this value
same,"renal toxicity (Kim-1, BUN, SCr), summary","urinary Kim-1 excretion [11]; rat, in vivo",little to no impact on renal function
same,nephrotoxicity,[10],the renal toxicity virtually disappeared
same,Primate Iron-Clearing Efficiency (%),"iron excretion [3]; po 75 μmol/kg, capsule",26.3 ± 9.9%
same,Primate Iron-Clearing Efficiency (%),"iron excretion [3]; po 75 μmol/kg, sodium salt",28.7 ± 12.4%
same,relative percentages of the iron excreted in the feces and urine,"iron excretion [3]; po 75 μmol/kg, capsule",93/7
same,relative percentages of the iron excreted in the feces and urine,"iron excretion [3]; po 75 μmol/kg, sodium salt",83/17
same,"Performance ratio (PR), mean ICEprimates/ICErodents","iron excretion [8]; primates po, capsule",1.0
same,"Performance ratio (PR), mean ICEprimates/ICErodents","iron excretion [8]; primates po, sodium salt",1.1
"COCCOCCOCCOc1cccc(C2=N[C@@](C)(C(=O)O)CS2)c1O [compound 5, (S)-4,5-dihydro-2-[2-hydroxy-3-(3,6,9-trioxadecyloxy)]-4-methyl-4-thiazolecarboxylic acid]",nephrotoxicity,[10],the renal toxicity virtually disappeared
"C[C@]1(C(=O)O)CSC(c2ncc(O)cc2O)=N1 [I-1, (S)-4,5-Dihydro-2-(3,5-dihydroxy-2-pyridinyl)-4-methyl-4-thiazolecarboxylic Acid]",LogPapp,[1],−1.68
same,observed mole fraction maximum in Job's plot,[4],0.669
same,BUN,urinary Kim-1 excretion [5]; [17],13 ± 2 mg/dL
same,SCr,urinary Kim-1 excretion [5]; [17],0.5 ± 0.1 mg/dL
same,"renal toxicity (Kim-1, BUN, SCr), summary",urinary Kim-1 excretion [5],some nephrotoxicity
same,"Exchange Rate (s^−1), hydrogen-deuterium exchange",[6],3.3e-06 s⁻¹
"CC(=O)N(O)CCCCCNC(=O)CCC(=O)N(O)CCCCCNC(=O)CCC(=O)N(O)CCCCCN [DFO, desferrioxamine B mesylate]",effect on acetic acid-induced colitis,[12],prevent acetic acid-induced colitis
